Among the data in a melting point compilation (Tetko et al.) are melting point values, retold here.

On to `CCOC(=O)C(C#N)=Cc1ccc(-c2ccc(C)cc2)o1`, for which the melting point (usually the temperature of the solid-liquid transition) is 123 to 124 °C. For `CC(CO)NC(=O)C1C=C2c3cccc4[nH]cc(c34)CC2N(C)C1` (configuration not stated) the value was 162 °C; for `O=C1OC(=O)C23CC4=C(CC=CC4)CC12CC1=C(CC=CC1)C3` (configuration not stated), 220 to 247 °C. Consider `CCOC(=O)C=P(c1ccccc1)(c1ccccc1)c1ccccc1`, for which the melting point was in the range of 124 to 129 °C. Next, `COc1ccc(COC(=O)NN)cc1`: 76 °C; `COc1ccccc1-c1ccc(C=C2C(=O)NC(=O)NC2=O)o1`: 220 °C; `CCOC(=O)C1CC(=O)C(=C(O)C2CC2)C(=O)C1` (configuration not stated): 36 °C. Next, `Cc1cc([N+]([O-])=Nc2ccccc2)c(C(C)C)cc1[N+]([O-])=Nc1ccccc1`: 127 °C; `COC(=O)C(O)C(O)C(=O)OC` (configuration not stated): 59 °C. In turn, `COc1cc(C(=O)O)ccc1C` registered a melting point of 159 °C. For `COC1CCC(OC)O1` (configuration not stated), the melting point was -45 °C. On to `FC(F)(F)c1cc(-n2cccc2)cc(C(F)(F)F)c1`, for which the melting point is 43 to 45 °C. For `Nc1ccc(Br)cc1F` the value was 40 °C; for `O=[N+]([O-])c1cc(Cl)ccc1Sc1ccccc1`, 82 to 84 °C. With `Cc1ccccc1-n1ncc(C(=O)O)c1C`, the melting point is 142 to 147 °C. Next, `COC(=O)c1ccc(CCl)cc1`: 40 °C; `O=C1OC(O)c2cc(Cl)c(Cl)cc21` (configuration not stated): 180 °C; `CN1CCN(CCCN2c3ccccc3Sc3ccc(Cl)cc32)CC1`: 228 °C. Compound `CC(CNC(=O)c1ccccc1)C(=O)OCC(=O)C12OC(C)(C)OC1CC1C3CCC4=CC(=O)C=CC4(C)C3(F)C(O)CC12C` (configuration not stated) gave a melting point of 205 °C. Next, `OCc1scc2c1OCCO2`: 68 to 69 °C; `COC(=O)CCCC(=O)OC`: -37 °C. The compound `Cc1nn(-c2ccccc2)c(N)c1C#N` registered a melting point of 129 to 131 °C.

`CCSC(SCC)=C1CCCC(=C(SCC)SCC)C1=C(C#N)C#N` showed a melting point of 100 to 102 °C. In turn, `O=S(=O)(Cl)c1cc(Cl)c(O)c(Cl)c1` showed a melting point of 119 °C. For `CS(=O)(=O)c1ccc2nc(N)sc2c1` the value was 222 to 223 °C. Compound `Cc1cncc(Cl)n1` had a melting point of 48 to 52 °C. For `COP(=S)(OC)Oc1cc(Cl)c(I)cc1Cl` the value was 76 °C; for `CC=Cc1ccc2c(c1)OCO2`, 8.2 °C; for `Cc1c(NC(=O)c2cccnc2)c(=O)n(-c2ccccc2)n1C`, 253 °C. Next, `C=C1CCC2OC2(C)CCC2C1CC2(C)C` (single isomer, unassigned; (-)): 62.5 °C. Next, `CC1(C)CC(N)CC(C)(CN)C1` (configuration not stated): 10 °C; `CC1Cc2c(Cl)cc(C(=O)NC(Cc3ccccc3)C(=O)O)c(O)c2C(=O)O1` (configuration not stated): 169 °C; `Nc1c(Br)cc(F)c(F)c1F`: 58 to 60 °C. `O=C(CCc1ccc(O)cc1)ON1C(=O)CCC1=O` yielded a melting point of 133 to 135 °C. The compound `CC/C(CCCc1ccccc1)=N\NC(N)=O` displayed a melting point of 149 °C. Compound `CCC(=O)c1ccc(N)cc1` showed a melting point of 140 °C. Next, `O=C(Nc1ccccc1)C(c1ccccc1)c1ccccc1`: 177 °C. `CC(=O)c1c(O)c(C(C)(C)C)cc(C(C)(C)C)c1O` returned a melting point of 180 °C.

`CCOC(=O)c1ccc(N/C=C2\C(=O)C3(C)CCC2C3(C)C)cc1` (configuration not stated) yielded a melting point of 105 °C. In turn, `CSCCC(NC(=O)c1ccc(C(F)(F)F)cc1)C(=O)NN` (configuration not stated) gave a melting point of 181 to 184 °C. For `O=[N+]([O-])c1ccc(/C(Cl)=C\c2cccc(/C=C(/Cl)c3ccc([N+](=O)[O-])cc3[N+](=O)[O-])c2)c([N+](=O)[O-])c1` the value was 215 °C. For `NC(=S)NCCc1ccccc1` the value was 150 to 152 °C; for `CC(=O)n1c(-c2ccccc2)c(O)c2ccc([N+](=O)[O-])cc21`, 179 °C; for `C=CCCC(=C)C`, -129 °C.

Consider `CC(C)CCCC(C)C1CCC2C3CC=C4C=CCCC4(C)C3CCC12C` (configuration not stated), for which the melting point is 80 °C. `CCCOCC(C)OCC(C)O` (configuration not stated) showed a melting point of 7.08 °C. `Cc1nc2scc(-c3ccccc3)c2c(=O)n1NC(=O)c1ccc(Cl)cc1Cl` had a melting point of 290 to 292 °C.

Compound `COC(=O)c1ccc(NC(C)=O)c(NC(C)=O)c1` yielded a melting point of 225 °C. For `OCc1csc2ccc(Br)cc12` the value was 79 to 81 °C; for `CCOC(=O)CCc1ccc2c(c1)NC(=O)CC2`, 124 °C. `O=C(C1=NOC2C(=O)N(c3ccccc3)C(=O)C12)c1cccs1` (configuration not stated) showed a melting point of 174 °C.

Regarding `C=C(C)CCCCCCCCCCCCCCCCC`, the melting point was 20 °C. For `CC(=O)C(=CN)Cc1ccccc1` the value was 95 °C; for `CCOC(=O)C(Br)CCC(Br)C(=O)OCC` (configuration not stated), 66 to 68 °C; for `O=c1cc(C(F)(F)F)n2nc(-c3ccc(Cl)cc3)cc2[nH]1`, 155 °C. For `Oc1ncnc2cccc(F)c12`, the melting point came out at 238 °C.

As to `COc1ccccc1P(CCP(c1ccccc1)c1ccccc1OC)c1ccccc1` (configuration not stated), the melting point is 102 to 104 °C.

Take `Brc1c(Br)c(Br)c(Oc2ccccc2)c(Br)c1Br`: the melting point is 200 °C. For `O=C(Oc1ccc2ccccc2c1)c1ccccc1O` the value was 95.5 °C; for `CCOO`, -100 °C; for `CC(C)C(C)CCC(C)C1CCC2C3CC=C4CC(O)CCC4(C)C3CCC12C` (configuration not stated), 158 °C. Next, `COC1=C(OC)C(C(O)CBr)OC1=O` (configuration not stated): 96 °C; `N#Cc1c(F)cccc1Sc1ccc(Cl)cc1`: 70 °C; `BrCc1ccc(-c2cccs2)cc1`: 83 to 84 °C. Next, `FC(Cl)(Cl)c1ccccc1`: -26.8 °C; `NC(=O)[C@@H]1CCCN1`: 97 to 102 °C; `Cc1ccc(C(=O)Cl)o1`: 29 °C. In turn, `O=C(NCO)NS(=O)(=O)c1ccc(NC(=O)c2ccccc2C(=O)O)cc1` gave a melting point of 162 °C.

For the compound `O=[N+]([O-])c1ccc(S(=O)(=O)Cl)cc1C(F)(F)F`, the melting point turned out to be 64 °C. `O=CNc1ccc(Cl)cc1C(=O)c1ccccc1`: the melting point was 89 to 91 °C. Next, `CCCCCCCCCCCCOC(=O)c1ccccc1C(=O)OCCCCCCCCCCCC`: 21 to 23 °C. Take `COc1cc(C=C2SC(=S)N(CNc3cccc([N+](=O)[O-])c3)C2=O)ccc1O`: the melting point was 214 to 215 °C. Next, `CC(=O)Nc1ccc(Cl)cc1C`: 136 to 138 °C. The compound `CC(=Cc1ccccc1)C(=O)Cl` yielded a melting point of 45 to 46 °C. For `FC(F)(F)c1ccc(-c2nnc(S)o2)cc1` the value was 155 to 156 °C; for `O=C(c1cccc2ccccc12)C(O)c1ccccc1` (configuration not stated), 105 to 106 °C; for `COC(=O)C=Cc1cccs1`, 49 °C. Compound `O=C(Cl)C1=Cc2cc(Cl)ccc2OC1` came in with a melting point of 92 to 94 °C.

As to `CC12CCC(=O)C=C1CCC1C2CCC2(C)C(O)CCC12` (configuration not stated), the melting point is 153 °C. For `c1cnc2nccnc2c1` the value was 143 °C. Next, `COC(=O)c1ccc(-c2cccs2)nc1`: 117 to 118 °C. The compound `CC(=O)Nc1ccc(OC(=O)c2ccccc2O)cc1` came in with a melting point of 187 °C. `C=CC#CC=C` came in with a melting point of -88 °C. With `CC(C)c1ccccc1Br`, the melting point was -59 °C. Compound `Nc1cc(Cl)cnc1Br` registered a melting point of 141 to 143 °C. Next, `COC(=O)N(C(=O)N1COC2(C(=O)OC)Cc3cc(Cl)ccc3C2=N1)c1ccc(OC(F)(F)F)cc1` (configuration not stated): 88.1 °C; `Cc1cc2ccccc2cc1CCl`: 65 °C; `O=[N+]([O-])c1ccc(N=Nc2ccc([N+](=O)[O-])cc2)cc1`: 212 °C. As for `COC(=O)c1cc(Br)c(Br)s1`, the melting point was 79 °C. For `C#CC1(O)CCC2C3CCC4=CC(=O)CCC4C3CCC21CC` (configuration not stated) the value was 240 °C; for `CCOc1ccc(-c2nnc3n2NC(c2ccc(Cl)cc2)S3)cc1` (configuration not stated), 109 °C; for `N#C/C(=N\Nc1cccc([N+](=O)[O-])c1)c1nc2ccccc2[nH]1`, 306 to 308 °C.

Take `CSc1nc2nc(SC)n(C)c2c(=O)n1-c1ccc(F)cc1`: the melting point fell in the range of 177 to 179 °C. Next, `O=C(NC(c1ccccc1)C(O)C(=O)O)c1ccccc1` (configuration not stated): 170 °C; `FC(F)(F)c1nnc(S)n1/N=C/c1ccc2c(c1)OCO2`: 221 °C.

Turning to `N[C@@H](CCCC(=O)O)C(=O)O`, the melting point stood at 206 °C. For `O=[N+]([O-])c1c(O)cc(O)cc1O` the value was 189 °C. With `CCOc1c(N2CCOCC2)cnn(C)c1=O`, the melting point was 90 °C. Next, `O=C1c2cccc(O)c2C(=O)c2c(O)cccc21`: 193 °C; `CC12CCC(=O)N1C(c1ccccc1)CO2` (configuration not stated): 125 °C. Next, `CCC(=O)C(C)(C)C`: -45 °C.

Turning to `Cc1ccc(CO)cc1C`, the melting point is 64 °C. For `Cn1ccnc1I` the value was 87 to 89 °C. `COc1cc2c(cc1O)CN(C1CC=CC(=O)C1)CC2` (configuration not stated) gave a melting point of 254 to 257 °C. Turning to `CC(=O)c1sc2nc(-c3cccs3)cc(C(F)(F)F)c2c1N`, the melting point fell in the range of 171 to 172 °C. Compound `Cc1ccc(-c2cnco2)cc1` returned a melting point of 78 °C. Next, `COC(=O)c1cnc(SCC(=O)NC(=O)Nc2ccccc2)n1C`: 204 to 205 °C.
